The subject of one assay is HIV 115-mer PCR product. Briefly: Photoproduct sterilization of PCR (HIV 115-mer carryover). It counts as biochemical. Particulars: 30 cycles; for sterilization of PCR (Example 52): 100 μl/ml. The text has this: FIG. 36 describes a series of oligonucleotides that can be used with the PCR amplification technique. Two primers are described (SK-38 and SK-39) that are complementary to a segment of the HIV genome. Each primer is complementary to sequences at the […] of one of each of two strands of a 115 base pair long segment of the HIV genome. In addition, FIG. 36 describes a crosslinkable probe molecule which is capable of hybridizing and crosslinking to one strand of the 115-mer PCR product. Repeated thermal cycling of SK-38 and SK-39 in the presence of Taq polymerase, appropriate reagents, and a target polynucleotide containing at least the 115-mer segment bounded by SK-38/SK-39, will result in the synthesis of both strands of the 115-mer. Therefore, PCR amplification will occur, with both strands of the 115-mer accumulating geometrically. This is in contrast to the oligonuceleotides described in FIG. 26. Only one primer (SK-39) is described in FIG. 26 which is capable hybridizing to the 3′ end of the 71-mer target oligonucleotide (HRI-55). The lack of a second primer in the system of oligonucleotides described by FIG. 26 prevents this system from being amplified geometrically. Repeated thermal cycling of HRI-55 and SK-39 in the presence of Taq polymerase and appropriate reagents will result in the linear accumulation of the complement of HRI-55.
[…] Aliquots of AMDIIIP photoproduct and the unirradiated compound were added (by pipetting) at 50, 100, 200 and 300 μg/ml to 1 μl aliquots of a 10^6 delution of PCR product copies. PCR product was provided by a) preparing template, b) providing template, c) providing PCR reagents, d) providing polymerase, e) mixing PCR reagents, template, and polymerase to initiate PCR, f) cycling to synthesize PCR product.
Step a): Template Preparation. The templates were derived from actual patient samples. Ficoll-Hypaque separated peripheral blood mononuclear cells (PBMCs) are prepared from individuals enrolled in a longitudinal AIDS study. Approximately 1×10^6 cells are added to 10 ml of RPMI containing 10% fetal calf serum. The cells are pelleted by centrifugation at 20×g for 5 minutes and washed twice with 10 ml PBS. The cell pellet is resuspended in a solution of 50 mM KCl, 10 mM Tris-HCl (pH 8.3), 2.5 mM MgCl2 and subsequently lysed by the addition of 0.5% Tween 20 and 0.5% NP40. Samples are digested with 60 μg/ml proteinase K (Sigma) for 1 hour at 60° C. […]
Again, to evaluate the efficacy of this method of sterilization, a subsequent polymerase chain reaction was carried out for 30 cycles in the presence of α-^32P-dCTP. PCR product was then quantitated by running gels (see above), cutting the bands (detected by autoradiography) and counting the bands on a commercial scintillation counter. […]

In another assay the test system is E. coli polymerase I. Particulars: nick-translating a double-stranded template; cited from earlier work.

SMILES strings stand for the structures.

Consider `Cc1oc2ccc3c(C)cc(=O)oc3c2c1CN` [AMDMIP, 4′-Aminomethyl-4,5′-dimethylisopsoralen], for which the “sterilization of PCR (Example 52)” value was “extensive sterilization” with HIV 115-mer PCR product (AMDMIP irradiated in CE-III device 15 minutes), “little sterilization” in the assay on HIV 115-mer PCR product (AMDMIP irradiated in PTI device 15 minutes) and “PCR product is clearly evident” in the assay on HIV 115-mer PCR product (unirradiated AMDMIP). For the same compound, the “sterilization of PCR” value in the assay with HIV 115-mer PCR product (unirradiated compound at 50, 100, 200, 300 μg/ml) is listed as “no sterilization”.
On to `Cc1cc2occc2c2oc(=O)ccc12` [MIP, 5-Methylisopsoralen], for which, in the assay with E. coli polymerase I, the “inhibition of polymerase by covalently bound monoadducts” value is reported as “not inhibited”.
